Laboratory results: patent US8008329B2 (Dong Wha Pharmaceutical Co., Ltd., priority 2008, dated 2011)
Marks after values point to notes of the source that are not given here.

Test system: osteoclast differentiation
Assay: Osteoclast differentiation in co-culture of mouse bone marrow cells and ST2 cells, TRAP staining (Examples 8-9)
Assay type: cell-based
Details: for % number of osteoclast (vs. solvent control group): 0.1 μM each, day 7; for activity at 0.1 µM: Mus musculus, Osteoclast, 168 h, Individual treatment (compounds), day 7, read-out: % number of osteoclast (vs. solvent control group)
Summary of the method: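 Bone marrow cells from 6-8-week male ddY mice were co-cultured with ST2 stromal cells under 10^−8 M vitamin D3 and 10^−8 M dexamethasone, with compounds at 0.1 μM final (0.1% DMSO control), refreshed on days 3 and 5. On day 7, TRAP-positive osteoclasts with ≥6 nuclei were counted and expressed as % of solvent control (n=4).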

[1] = Combination treatment (alendronic acid + compounds)
[2] = Combination treatment (risedronic acid + compounds)

Row | Compound | % number of osteoclast (vs. solvent control group) [1] | % number of osteoclast (vs. solvent control group) [2] | activity at 0.1 µM
1 | CNc1nc(-c2ccc(OCCCCCOc3ccc(C(=N)NO)cc3)cc2)c(CCN2CCSCC2)s1 [Compound 262, N-hydroxy-4-(5-{4-[2-methylamino-5-(2-thiomorpholin-4-yl-ethyl)-thiazol-4-yl]-phenoxy}-pentyloxy)-benzamidine] | 24 ± 2.6^ab % | 7 ± 4.9^ac % | 47 ± 4.2%
2 | Cc1nc(-c2ccc(OCCCCCOc3ccc(C(=N)NO)cc3)cc2)c(CNCc2ccccc2)s1 [Compound 306, N-hydroxy-4-(5-{4-[5-(benzylamino-methyl)-2-methyl-thiazol-4-yl]-phenoxy}-pentyloxy)-benzamidine] | 18 ± 4.3^ab % | 16 ± 3.3^ac % | 48 ± 6.4%
3 | CCCN(CCC)c1nc(-c2ccc(OCCCCCOc3ccc(C(=N)NO)cc3)cc2)c(C(C)C)s1 [Compound 157, N-hydroxy-4-{5-[4-(5-isopropyl-2-dipropylamino-1,3-thiazol-4-yl)phenoxy]pentyloxy}-benzamidine] | 39 ± 8.3^ab % | 36 ± 15.1^ac % | 78 ± 13.5%
4 | Cc1sc(N(C)Cc2ccccc2)nc1-c1ccc(OCCCCCOc2ccc(C(=N)NO)cc2)cc1 [Compound 125, N-hydroxy-4-{5-(4-[2-(benzyl-methyl-amino)-5-methyl-1,3-thiazol-4-yl]phenoxy)pentyloxy}-benzamidine] | 43 ± 3.3^ab % | 21 ± 9.0^ac % | 66 ± 4.4%
5 | N=C(NO)c1ccc(OCCCCCOc2ccc(-c3nc(-c4cccnc4)sc3CCCl)cc2)cc1 [Compound 80, N-hydroxy-4-{5-[4-(5-(2-chloroethyl)-2-(pyridin-3-yl)-1,3-thiazol-4-yl)phenoxy]pentyloxy}-benzamidine] | 42 ± 9.9^b % | 38 ± 3.7^ac % | 65 ± 1.4%
6 | Cc1nc(-c2ccc(OCCCCCOc3ccc(C(=N)NO)cc3)cc2)c(CCN2CCN(C)CC2)s1 [Compound 232, N-hydroxy-4-[5-(4-{2-methyl-5-[2-(4-methyl-piperazin-1-yl)-ethyl]-thiazol-4-yl}-phenoxy)-pentyloxy]-benzamidine] | 39 ± 5.2^b % | 37 ± 4.9^c % | 47 ± 9.4%
7 | Cc1nc(-c2ccc(OCCCCCOc3ccc(C(=N)NO)cc3)cc2)c(CNCCCn2ccnc2)s1 [Compound 303, N-hydroxy-4-[5-(4-{5-[(3-imidazol-1-yl-propylamino)-methyl]-2-methyl-thiazol-4-yl}-phenoxy)-pentyloxy]-benzamidine] | 12 ± 2.5^ab % | 8 ± 2.2^ac % | 53 ± 10.7%
8 | CCCCc1sc(N(C)CCN2CCOCC2)nc1-c1ccc(OCCCCCOc2ccc(C(=N)NO)cc2)cc1 [Compound 144, N-hydroxy-4-[5-(4-{5-butyl-2-[methyl-(2-morpholinoethyl)amino]-1,3-thiazol-4-yl}phenoxy)pentyloxy]-benzamidine] | 44 ± 10.5^ab % | 37 ± 4.3^ac % | 82 ± 6.7%
9 | CN(C)c1nc(-c2ccc(OCCCCCOc3ccc(C(=N)NO)cc3)cc2)c(CCN2CCSCC2)s1 [Compound 267, N-hydroxy-4-(5-{4-[2-dimethylamino-5-(2-thiomorpholin-4-yl-ethyl)-thiazol-4-yl]-phenoxy}-pentyloxy)-benzamidine] | 33 ± 5.3^ab % | 13 ± 2.4^ac % | 68 ± 8.6%
10 | Cc1nc(-c2ccc(OCCCCCOc3ccc(C(=N)NO)cc3)cc2)c(CCNC(C)C)s1 [Compound 219, N-hydroxy-4-(5-{4-[5-(2-isopropylamino-ethyl)-2-methyl-thiazol-4-yl]-phenoxy}-pentyloxy)-benzamidine] | 51 ± 5.4^b % | 40 ± 3.8^c % | 61 ± 10.5%
11 | CC(C)c1nc(-c2ccc(OCCCCCOc3ccc(C(=N)NO)cc3)cc2)c(CCN2CCN(C)CC2)s1 [Compound 241, N-hydroxy-4-[5-(4-{2-isopropyl-5-[2-(4-methyl-piperazin-1-yl)-ethyl]-thiazol-4-yl}-phenoxy)-pentyloxy]-benzamidine] | 24 ± 4.6^ab % | 12 ± 1.4^ac % | 61 ± 6.8%
12 | CCN(C)c1nc(-c2ccc(OCCCCCOc3ccc(C(=N)NO)cc3)cc2)c(CN2CCOCC2)s1 [Compound 311, N-hydroxy-4-(5-{4-[2-(ethyl-methyl-amino)-5-morpholin-4-ylmethyl-thiazol-4-yl]-phenoxy}-pentyloxy)-benzamidine] | 21 ± 4.2^b % | 12 ± 5.8^ac % | 46 ± 10.7%
13 | Cc1nc(-c2ccc(OCCCCCOc3ccc(C(=N)NO)cc3)cc2)c(CNC(C)(C)C)s1 [Compound 300, N-hydroxy-4-(5-{4-[5-(tert-butylamino-methyl)-2-methyl-thiazol-4-yl]-phenoxy}-pentyloxy)-benzamidine] | 12 ± 1.7^ab % | 8 ± 5.2^ac % | 48 ± 3%
14 | CNc1nc(-c2ccc(OCCCCCOc3ccc(C(=N)NO)cc3)cc2)c(CCCl)s1 [Compound 115, N-hydroxy-4-{5-[4-(5-(2-chloroethyl)-2-methylamino-1,3-thiazol-4-yl)phenoxy]pentyloxy}-benzamidine] | 51 ± 8.9% | 45 ± 8.3^ac % | 77 ± 12.4%
15 | COCCNCc1sc(N(C)CCN2CCOCC2)nc1-c1ccc(OCCCCCOc2ccc(C(=N)NO)cc2)cc1 [Compound 318, N-hydroxy-4-[5-(4-{5-[(2-methoxy-ethylamino) -methyl]-2-[methyl-(2-morpholin-4-yl-ethyl)-amino]-thiazol-4-yl}-phenoxy) -pentyloxy]-benzamidine] | 27 ± 3.0^ab % | 12 ± 1.8^ac % | 43 ± 3.7%
16 | N=C(NO)c1ccc(OCCCCCOc2ccc(-c3nc(CN4CCCCC4)sc3CCN3CCOCC3)cc2)cc1 [Compound 276, N-hydroxy-4-(5-{4-[5-(2-morpholin-4-yl-ethyl)-2-piperidin-1-yl-methyl-thiazol-4-yl]-phenoxy}-pentyloxy)-benzamidine] | 21 ± 2.9^b % | 11 ± 3.1^c % | 41 ± 12.1%
17 | CCN(Cc1ccccc1)c1nc(-c2ccc(OCCCCCOc3ccc(C(=N)NO)cc3)cc2)c(C)s1 [Compound 127, N-hydroxy-4-[5-{4-[2-(benzyl-ethyl-amino)-5-methyl-1,3-thiazol-4-yl]phenoxy}pentyloxy]-benzamidine] | 37 ± 6.8^ab % | 33 ± 7.3^ac % | 75 ± 14.3%
